# Where two headings read alike, the source gives them in different places.
# Tests used:
# Format in all cases: biochemical
# BTK-WT = target: T1, BTK-WT (Homo sapiens, UniProt Q06187); experiment: Btk in vitro inhibitory activity (one of Method A TR-FRET, Method B electrophoretic mobility shift, Method C radiometric filter binding); conditions: read-out: IC50 BTK-WT
# T1 construct: purified from insect cells as a full-length construct containing an N-terminal 6X-His tag; His6 (N); made in house; host or cells: insect cells (baculovirus Sf21 in Method B)
# T1 sequence (Q06187 whole entry): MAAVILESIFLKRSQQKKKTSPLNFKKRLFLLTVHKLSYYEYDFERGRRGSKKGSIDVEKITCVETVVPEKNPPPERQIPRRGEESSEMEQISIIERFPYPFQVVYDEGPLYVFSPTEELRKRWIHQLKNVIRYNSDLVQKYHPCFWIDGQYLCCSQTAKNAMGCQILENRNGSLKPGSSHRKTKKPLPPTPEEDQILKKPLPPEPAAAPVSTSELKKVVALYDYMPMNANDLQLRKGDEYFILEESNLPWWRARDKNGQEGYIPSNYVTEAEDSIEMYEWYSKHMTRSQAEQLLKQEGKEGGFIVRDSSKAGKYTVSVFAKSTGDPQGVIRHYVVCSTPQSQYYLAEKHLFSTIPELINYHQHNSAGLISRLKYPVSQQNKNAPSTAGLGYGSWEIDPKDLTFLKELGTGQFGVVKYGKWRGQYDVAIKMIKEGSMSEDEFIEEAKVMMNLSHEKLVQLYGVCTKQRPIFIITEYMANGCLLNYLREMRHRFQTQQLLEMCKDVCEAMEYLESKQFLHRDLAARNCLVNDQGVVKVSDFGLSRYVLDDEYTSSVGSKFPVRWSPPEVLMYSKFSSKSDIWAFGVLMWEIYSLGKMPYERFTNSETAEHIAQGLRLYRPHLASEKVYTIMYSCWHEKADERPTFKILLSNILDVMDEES
# JAK3 = target: T2, JAK3 (Homo sapiens, UniProt P52333); experiment: Inhibition of a panel of kinases, in vitro HotSpot kinase assay: JAK3; conditions: read-out: IC50 JAK3
# T2 sequence (P52333 1-1124): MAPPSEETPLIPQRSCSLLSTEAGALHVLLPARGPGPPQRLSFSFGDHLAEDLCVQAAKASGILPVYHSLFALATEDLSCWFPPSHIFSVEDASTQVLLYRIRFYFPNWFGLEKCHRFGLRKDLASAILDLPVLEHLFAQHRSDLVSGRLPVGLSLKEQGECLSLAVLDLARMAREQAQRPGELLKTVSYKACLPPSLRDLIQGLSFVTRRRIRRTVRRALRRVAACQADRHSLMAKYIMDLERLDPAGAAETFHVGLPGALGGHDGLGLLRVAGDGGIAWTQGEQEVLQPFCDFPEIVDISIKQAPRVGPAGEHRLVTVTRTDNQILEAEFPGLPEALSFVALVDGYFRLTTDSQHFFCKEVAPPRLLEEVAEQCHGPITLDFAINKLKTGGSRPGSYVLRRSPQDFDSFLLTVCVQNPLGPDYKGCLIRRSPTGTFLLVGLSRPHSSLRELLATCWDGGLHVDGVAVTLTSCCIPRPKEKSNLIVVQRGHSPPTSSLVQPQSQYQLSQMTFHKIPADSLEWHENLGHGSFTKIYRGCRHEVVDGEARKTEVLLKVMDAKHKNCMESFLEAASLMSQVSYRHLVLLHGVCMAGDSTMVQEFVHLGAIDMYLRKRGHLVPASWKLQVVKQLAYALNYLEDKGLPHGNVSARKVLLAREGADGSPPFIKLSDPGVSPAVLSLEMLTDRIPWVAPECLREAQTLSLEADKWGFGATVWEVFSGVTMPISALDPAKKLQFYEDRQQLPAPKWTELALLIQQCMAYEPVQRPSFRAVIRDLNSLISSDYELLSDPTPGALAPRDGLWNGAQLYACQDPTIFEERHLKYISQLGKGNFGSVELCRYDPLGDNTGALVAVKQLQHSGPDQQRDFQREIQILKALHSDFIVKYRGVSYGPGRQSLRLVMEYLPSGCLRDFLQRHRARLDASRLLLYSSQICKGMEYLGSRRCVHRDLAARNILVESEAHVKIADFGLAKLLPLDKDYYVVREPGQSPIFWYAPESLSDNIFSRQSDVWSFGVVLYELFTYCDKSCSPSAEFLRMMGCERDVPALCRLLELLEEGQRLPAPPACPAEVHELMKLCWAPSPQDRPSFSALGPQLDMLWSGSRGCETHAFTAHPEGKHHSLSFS
# SRC = SRC (Homo sapiens, UniProt P12931); experiment: Inhibition of a panel of kinases, in vitro HotSpot kinase assay: SRC
# SRC, sequence (P12931 whole entry): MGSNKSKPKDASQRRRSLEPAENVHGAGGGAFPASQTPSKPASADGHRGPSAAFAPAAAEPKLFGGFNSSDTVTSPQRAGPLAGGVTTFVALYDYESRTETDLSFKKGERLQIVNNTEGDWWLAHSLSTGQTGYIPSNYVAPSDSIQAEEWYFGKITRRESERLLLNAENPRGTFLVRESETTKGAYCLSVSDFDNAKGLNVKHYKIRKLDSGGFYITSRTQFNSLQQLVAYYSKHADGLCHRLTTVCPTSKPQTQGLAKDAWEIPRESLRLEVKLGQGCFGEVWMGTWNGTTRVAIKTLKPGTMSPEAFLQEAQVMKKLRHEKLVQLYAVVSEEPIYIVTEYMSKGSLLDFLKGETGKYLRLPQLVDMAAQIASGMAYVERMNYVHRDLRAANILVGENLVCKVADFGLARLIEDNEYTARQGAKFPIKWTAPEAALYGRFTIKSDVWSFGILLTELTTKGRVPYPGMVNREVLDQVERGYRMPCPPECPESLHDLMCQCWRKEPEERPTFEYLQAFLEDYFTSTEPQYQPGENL
# Experimental: The degree of inhibition of a panel of kinases is determined using the in vitro HotSpot kinase assay (purified enzymes, ^33P-ATP, an appropriate substrate and 1 μM ATP).
# [1] = D-compounds panel data, 1 μM ATP
IC50 (BTK-WT; D-compounds panel data),IC50 (JAK3; [1]),IC50 (SRC; [1]),"IC50 (BTK-WT; E compounds, Table 17)","IC50 (JAK3; E compounds, Table 17)","IC50 (SRC; E compounds, Table 17)",SMILES
1000 to 10000 nM,> 10000 nM,1000 to 10000 nM,,,,"Cn1cc(Nc2nc(N3CCC[C@H]4[C@@H]3CCCN4C(=O)c3ccc(C4CC4)cc3)cnc2C(N)=O)cn1 [Example D-47, 5-[(4aS,8aS)-5-(4-cyclopropylbenzoyl)-decahydro-1,5-naphthyridin-1-yl]-3-[(1-methyl-1H-pyrazol-4-yl)amino]pyrazine-2-carboxamide]"
100 to 1000 nM,1000 to 10000 nM,1000 to 10000 nM,,,,"Cc1cc(Nc2nc(N3C[C@@H](NC(=O)N(C)C)CC[C@@H]3C)cnc2C(N)=O)sn1 [Example D-76, 5-[(2S,5S)-5-[(dimethylcarbamoyl)amino]-2-methylpiperidin-1-yl]-3-[(3-methyl-1,2-thiazol-5-yl)amino]pyrazine-2-carboxamide]"
10 to 100 nM,1000 to 10000 nM,100 to 1000 nM,,,,"C[C@@H]1[C@H](NC(=O)c2ccc(C3CC3)nc2)CCCN1c1cnc(C(N)=O)c(Nc2ccc(OC3CCC(F)(F)CC3)cc2)n1 [Example D-48, 5-[(2R,3R)-3-(6-cyclopropylpyridine-3-amido)-2-methylpiperidin-1-yl]-3-({4-[(4,4-difluorocyclohexyl)oxy]phenyl}amino)pyrazine-2-carboxamide]"
≤ 10 nM,> 10000 nM,100 to 1000 nM,,,,"C[C@@H]1[C@H](NC(=O)c2ccc(C3CC3)cc2F)CCCN1c1cnc(C(N)=O)c(Nc2ccc(N3CCOCC3)cc2)n1 [Example D-73, 5-[(2R,3R)-3-(4-cyclopropyl-2-fluorobenzamido)-2-methylpiperidin-1-yl]-3-{[4-(morpholin-4-yl)phenyl]amino}pyrazine-2-carboxamide]"
,,,≤ 10 nM,< 10 nM,10 to 100 nM,"C=CC(=O)N1CCC[C@@H](Nc2cnc(C(N)=O)c(Nc3ccc(C4CCN(C5CCCC5)CC4)cc3)n2)C1 [Example E-108, (R)-5-(1-acryloylpiperidin-3-ylamino)-3-(4-(1-cyclopentylpiperidin-4-yl)phenylamino)pyrazine-2-carboxamide]"
≤ 10 nM,100 to 1000 nM,10 to 100 nM,,,,C[C@@H]1[C@H](NC(=O)c2ccc(C3CC3)cc2)CCCN1c1cnc(C(N)=O)c(Nc2ccc(OC3CCN(C)CC3)cc2)n1 [Example D-89]
≤ 10 nM,100 to 1000 nM,≤ 10 nM,,,,"C[C@@H]1[C@H](NC(=O)c2ccc(C(C)(C)N)cc2)CCCN1c1cnc(C(N)=O)c(Nc2cnn(C)c2)n1 [Example D-51, 5-[(2R,3R)-3-[4-(2-aminopropan-2-yl)benzamido]-2-methylpiperidin-1-yl]-3-[(1-methyl-1H-pyrazol-4-yl)amino]pyrazine-2-carboxamide]"
10 to 100 nM,> 10000 nM,100 to 1000 nM,,,,"C[C@@H]1[C@H](NC(=O)c2ccc(C3CC3)cc2)CCCN1c1cnc(C(N)=O)c(Nc2cnn(CC3CCC(F)(F)CC3)c2)n1 [Example D-321, 5-[(2R,3R)-3-(4-cyclopropylbenzamido)-2-methylpiperidin-1-yl]-3-({1-[(4,4-difluorocyclohexyl)methyl]-1H-pyrazol-4-yl}amino)pyrazine-2-carboxamide]"
≤ 10 nM,100 to 1000 nM,10 to 100 nM,,,,"C[C@@H]1[C@H](N2Cc3cc(Br)ccc3C2=O)CCCN1c1cnc(C(N)=O)c(Nc2cnn(C)c2)n1 [Example D-27, 5-[(2R,3R)-3-(5-bromo-1-oxo-2,3-dihydro-1H-isoindol-2-yl)-2-methylpiperidin-1-yl]-3-[(1-methyl-1H-pyrazol-4-yl)amino]pyrazine-2-carboxamide]"
1000 to 10000 nM,> 10000 nM,> 10000 nM,,,,"Cc1csc(Nc2nc(N3CCC[C@@H](NC(=O)c4ccc(C5CC5)cc4F)[C@H]3C)cnc2C(N)=O)n1 [Example D-63, 5-[(2R,3R)-3-(4-cyclopropyl-2-fluorobenzamido)-2-methylpiperidin-1-yl]-3-[(4-methyl-1,3-thiazol-2-yl)amino]pyrazine-2-carboxamide]"
≤ 10 nM,1000 to 10000 nM,10 to 100 nM,,,,"C[C@@H]1[C@H](NC(=O)c2ccc(C(C)(C)C#N)cc2)CCCN1c1cnc(C(N)=O)c(Nc2cnn(C)c2)n1 [Example D-88, 5-[(2R,3R)-3-[4-(1-cyano-1-methylethyl)benzamido]-2-methylpiperidin-1-yl]-3-[(1-methyl-1H-pyrazol-4-yl)amino]pyrazine-2-carboxamide]"
100 to 1000 nM,> 10000 nM,1000 to 10000 nM,,,,"CN(C)C(=O)N[C@H]1CCCN(c2cnc(C(N)=O)c(Nc3ccc4ncccc4c3)n2)[C@H]1CO (racemic) [Example D-65, cis 5-[3-[(dimethylcarbamoyl)amino]-2-(hydroxymethyl)piperidin-1-yl]-3-[(quinolin-6-yl)amino]pyrazine-2-carboxamide]"
≤ 10 nM,1000 to 10000 nM,100 to 1000 nM,,,,"C[C@@H]1[C@H](NC(=O)c2ccc(C3CC3)cc2F)CCCN1c1cnc(C(N)=O)c(Nc2cnn(C)c2)n1 [Example D-1, 5-[(2R,3R)-3-(4-cyclopropyl-2-fluorobenzamido)-2-methylpiperidin-1-yl]-3-[(1-methyl-1H-pyrazol-4-yl)amino]pyrazine-2-carboxamide]"
100 to 1000 nM,1000 to 10000 nM,1000 to 10000 nM,,,,"Cc1cc(Nc2nc(N3CCC[C@@H](NC(=O)c4ccc(C5CC5)cc4F)C3)cnc2C(N)=O)on1 [Example D-2, 5-[(3R)-3-(4-cyclopropyl-2-fluorobenzamido)piperidin-1-yl]-3-[(3-methyl-1,2-oxazol-5-yl)amino]pyrazine-2-carboxamide]"
≤ 10 nM,> 10000 nM,100 to 1000 nM,,,,"C[C@@H]1[C@H](NC(=O)c2ccc(C3CC3)cc2)CCCN1c1cnc(C(N)=O)c(Nc2cnc(N3CCN(C)CC3)nc2)n1 [Example D-318, 5-[(2R,3R)-3-(4-cyclopropylbenzamido)-2-methylpiperidin-1-yl]-3-{[2-(4-methylpiperazin-1-yl)pyrimidin-5-yl]amino}pyrazine-2-carboxamide]"
10 to 100 nM,1000 to 10000 nM,100 to 1000 nM,,,,"Cn1cc(Nc2nc(N3CCC[C@@H]4[C@H]3CCCN4C(=O)c3ccc(C4CC4)cc3)cnc2C(N)=O)cn1 [Example D-46, 5-I[(4aR,8aR)-5-(4-cyclopropylbenzoyl)-decahydro-1,5-naphthyridin-1-yl]-3-[(1-methyl-1H-pyrazol-4-yl)amino]pyrazine-2-carboxamide]"
10 to 100 nM,1000 to 10000 nM,100 to 1000 nM,,,,"C[C@@H]1[C@H](NC(=O)N(C)C)CCCN1c1cnc(C(N)=O)c(Nc2cn[nH]c2)n1 [Example D-53, 5-[(2R,3R)-3-[(dimethylcarbamoyl)amino]-2-methylpiperidin-1-yl]-3-[(1H-pyrazol-4-yl)amino]pyrazine-2-carboxamide]"
100 to 1000 nM,1000 to 10000 nM,100 to 1000 nM,,,,"Cc1cc(Nc2nc(N3C[C@@H](NC(=O)c4ccc(C5CC5)cc4F)CC[C@@H]3C)cnc2C(N)=O)sn1 [Example D-78, 5-[(2S,5S)-5-(4-cyclopropyl-2-fluorobenzamido)-2-methylpiperidin-1-yl]-3-[(3-methyl-1,2-thiazol-5-yl)amino]pyrazine-2-carboxamide]"
100 to 1000 nM,1000 to 10000 nM,1000 to 10000 nM,,,,"Cc1cc(Nc2nc(N3C[C@H](NC(=O)c4ccc(C5CC5)cc4F)CC[C@H]3C)cnc2C(N)=O)sn1 [Example D-79, 5-[(2R,5R)-5-(4-cyclopropyl-2-fluorobenzamido)-2-methylpiperidin-1-yl]-3-[(3-methyl-1,2-thiazol-5-yl)amino]pyrazine-2-carboxamide]"

SMILES,IC50 (BTK-WT; D-compounds panel data),IC50 (JAK3; [1]),IC50 (SRC; [1]),"IC50 (BTK-WT; E compounds, Table 17)","IC50 (JAK3; E compounds, Table 17)","IC50 (SRC; E compounds, Table 17)"
"CN(C)C(=O)N[C@@H]1CCCN(c2cnc(C(N)=O)c(Nc3ccc(C4(C)CCN(C5CCCC5)CC4)cc3)n2)[C@@H]1CO [Example D-58, 3-{[4-(1-cyclopentyl-4-methylpiperidin-4-yl)phenyl]amino}-5-[(2S,3R)-3-[(dimethylcarbamoyl)amino]-2-(hydroxymethyl)piperidin-1-yl]pyrazine-2-carboxamide]",≤ 10 nM,1000 to 10000 nM,100 to 1000 nM,,,
